Assay results from patent publication EP0292169B1, “Substrates for B-galactosidase” (Bayer Corporation, priority 1987, dated 1988).
Read-outs that look alike come from different tables or passages of the source.

Columns and labels:
β-galactosidase [1] = molecular target: T1, β-galactosidase (Escherichia coli, UniProt P00722); conditions: available from the literature, cited from earlier work
[2] = Stability in aqueous environment; type: physicochemical
[3] = Molar absorptivity of phenolic precursors of substrates; type: physicochemical
Protocol: The molar absorptivity (εmax) of the phenolic precursors of several substrates of this invention were measured and calculated according to the following formula: [formula] wherein A is the absorbance; b is the path length through the sample; and c is the concentration of solute.
The molar absorptivity of the phenolic precursor of ONPG, the most commonly used prior art substrate for β-galactosidase was likewise measured and calculated for comparative purposes. The aim was to identify phenolic precursors which would provide enhanced molar absorptivity to that of ONPG.

β-galactosidase [4] = molecular target: T1, β-galactosidase; type: biochemical; conditions: for V max / Km: calculated from experimental data of Figs. 1 and 2
β-galactosidase [5] = molecular target: T1, β-galactosidase; type: biochemical; conditions: antibody titration curve, Fig. 3

T1 sequence (P00722 2-1024): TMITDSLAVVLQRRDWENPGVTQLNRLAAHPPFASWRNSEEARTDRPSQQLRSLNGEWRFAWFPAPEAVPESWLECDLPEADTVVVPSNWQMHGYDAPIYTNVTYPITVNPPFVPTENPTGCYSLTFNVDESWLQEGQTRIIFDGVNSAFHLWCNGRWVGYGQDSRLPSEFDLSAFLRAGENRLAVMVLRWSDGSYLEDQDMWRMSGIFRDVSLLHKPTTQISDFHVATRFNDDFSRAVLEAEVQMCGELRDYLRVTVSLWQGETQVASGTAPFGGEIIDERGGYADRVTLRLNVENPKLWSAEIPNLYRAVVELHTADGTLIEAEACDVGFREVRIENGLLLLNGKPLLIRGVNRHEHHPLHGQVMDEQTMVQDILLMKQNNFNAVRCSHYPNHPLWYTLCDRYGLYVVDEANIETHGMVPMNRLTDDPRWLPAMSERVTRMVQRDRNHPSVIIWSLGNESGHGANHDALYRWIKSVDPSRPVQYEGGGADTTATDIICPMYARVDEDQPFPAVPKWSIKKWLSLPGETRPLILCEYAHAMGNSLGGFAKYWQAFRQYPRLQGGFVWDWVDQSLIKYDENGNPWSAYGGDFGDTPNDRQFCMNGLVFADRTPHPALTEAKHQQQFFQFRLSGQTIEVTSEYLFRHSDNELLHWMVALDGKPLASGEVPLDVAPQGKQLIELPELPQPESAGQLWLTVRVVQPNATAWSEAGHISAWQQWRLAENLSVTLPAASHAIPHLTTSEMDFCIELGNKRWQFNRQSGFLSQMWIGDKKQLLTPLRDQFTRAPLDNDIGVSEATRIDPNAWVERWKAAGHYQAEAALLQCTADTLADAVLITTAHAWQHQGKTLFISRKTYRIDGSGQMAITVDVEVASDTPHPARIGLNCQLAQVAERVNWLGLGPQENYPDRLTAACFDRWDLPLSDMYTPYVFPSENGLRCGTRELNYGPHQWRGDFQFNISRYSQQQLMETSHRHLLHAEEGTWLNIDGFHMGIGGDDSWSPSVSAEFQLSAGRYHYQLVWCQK

For `O=[N+]([O-])c1ccccc1O[C@@H]1O[C@H](CO)[C@H](O)[C@H](O)[C@H]1O` [ONPG, O-nitrophenyl-β-D-galactopyranoside], the V max (β-galactosidase [1]) is given as 0.03 ΔA/Min and the Km (β-galactosidase [1]; read-out: Km) is given as 170 µM.

In the case of `O=[N+]([O-])c1ccc(O[C@@H]2O[C@H](CO)[C@H](O)[C@H](O)[C@H]2O)c([N+](=O)[O-])c1` [DNPG, 2,4-dinitro-phenyl-β-D-galactopyranoside], the “stability in aqueous environment” value [2] is given as “unstable”, the Km (β-galactosidase [1]) is given as 220 µM and the V max (β-galactosidase [1]) is given as 0.13 ΔA/Min.

For `O=[N+]([O-])c1ccccc1O` [ONP, orthonitro phenol, reference compound], the “Molar Absorptivity (εmax)” value ([3]; 405 nm, pH 7.5) was 3.0 (405 nm, pH 7.5).

With `O=[N+]([O-])c1ccc(O)c([N+](=O)[O-])c1` [DNP, 2,4-dinitro phenol] the “Molar Absorptivity (εmax)” value ([3]; pH 7.5) was 10.7 (405 nm, pH 7.5).

For `Cc1cc(O)ccc1C1(c2ccc(O)cc2C)OS(=O)(=O)c2ccccc21` [metacresol purple], the “Molar Absorptivity (εmax)” value ([3]; 575 nm, pH 8.5) was 8.4 (575 nm, pH 8.5).

With “bromocresol purple-β-D-galactopyranoside [BCPG, reference compound]” the V max (β-galactosidase [4]) was 0.11 ΔA/Min and the Km (β-galactosidase [4]; read-out: Km) was 8000 µM.

In the case of `O=[N+]([O-])c1ccc(O[C@@H]2O[C@H](CO)[C@H](O)[C@H](O)[C@H]2O)c(Cl)c1` [CLNPG, 2-chloro-4-nitrophenyl-β-D-galactopyranoside], the “V max relative to that of ONPG” value (β-galactosidase [4]; CLNPG versus ONPG) is reported as “at least four times”, the Km (β-galactosidase [4]) is reported as 200 µM and the V max (β-galactosidase [4]) is reported as 0.13 ΔA/Min. The “increase in assay sensitivity over ONPG” value (β-galactosidase [5]) was “four-fold”.

With `O=[N+]([O-])c1cc(Cl)c(O)c(Cl)c1` [2,6-dichloro-4-nitrophenol] the “Molar Absorptivity (εmax)” value ([3]; 405 nm, pH 7.5) was 15.9 (405 nm, pH 7.5).

In the case of `Cc1cc(C2(c3cc(C)c(O)c(Br)c3)OS(=O)(=O)c3ccccc32)cc(Br)c1O` [bromocresol purple], the “Molar Absorptivity (εmax)” value ([3]; 585 nm, pH 8.5) is reported as 50.7 (585 nm, pH 8.5).

With `O=[N+]([O-])c1cccc(Cl)c1O` [2-chloro-6-nitrophenol] the “Molar Absorptivity (εmax)” value ([3]; 405 nm, pH 7.5) was 4.6 (405 nm, pH 7.5).

With `O=[N+]([O-])c1ccc(O)c(Cl)c1` [CLNP, 2-chloro-4-nitrophenol] the “Molar Absorptivity (εmax)” value ([3]; 405 nm, pH 7.5) was 16.9 (405 nm, pH 7.5).
